In a melting point compilation (Tetko et al.; mined from patent text by program, amines drawn as free bases though some values may be those of a salt) one finds melting point data, which are given here for 87 compounds.

Usually melting point stands for the temperature of the solid-liquid transition.

`C=C(C)c1cc(O)cc2nc(-c3ccc(O)cc3)oc12` registered a melting point of 225 to 228 °C.
In the case of `Cn1c(C(F)(F)F)ccc(-c2ccc(F)cc2F)c1=O`, the melting point lay in the range of 123 to 124 °C.
`CC(C)(C)C(=O)n1c(=O)n(CCN2CCC(=C(c3ccc(F)cc3)c3ccc(F)cc3)CC2)c(=O)c2cscc21` showed a melting point of 69 to 72 °C.
As to `CN1CCN(c2cc(N)ccc2Br)CC1`, the melting point lay within 120 to 122 °C.
To `COc1cccc(C2(C(N)=O)CCC3(CC2)OCCO3)c1` belongs 135 to 138 °C; to `CC1CCc2cc(N3C[C@H](CO)OC3=O)ccc2N1C(=O)OCc1ccccc1` (some centres not stated), 99 to 102 °C.
On to `O=C(Nc1ccc(N2CCCC2)nc1)c1cc2cc(F)ccc2n1Cc1ccncc1`, for which the melting point fell in the range of 255 to 257 °C.
To `COc1cccc2c1C(C)(C)CC(O)(C(F)(F)F)C2Nc1cccc2c1cnn2C` (configuration not stated) belongs 172 to 174 °C; to `O=C(CSc1ccccc1)c1ccc2[nH]c3ncc(Cl)cc3c2c1`, 238 to 239 °C; to `CC(C)C[C@H](NC(=O)OCc1ccccc1)C(=O)NC(Cc1ccc(F)cc1)C(=O)CSCc1ccco1` (some centres not stated), 101 °C.
For the compound `O=C1c2c(O)ccc(O)c2C(=O)c2c(NCCN3CCC(O)C3)ccc(NCCN3CCC(O)C3)c21` (configuration not stated), the melting point fell in the range of 197 to 199 °C.
As to `CCOC(=O)C(C(N)=O)C12CC3CC(CC(C3)C1)C2` (configuration not stated), the melting point was in the range of 97 to 98 °C.
On to `COc1ccc(C(=O)Nc2ncc(Cl)cc2Cl)c2c1oc1ccccc12`, for which the melting point was 302 °C.
Take `COc1cc(C)c(NS(C)(=O)=O)cc1C(=O)NCC1CCCO1` (configuration not stated): the melting point was in the range of 207 to 208 °C.
As for `COC(=O)Cc1cc(Br)c(Sc2ccc(O)c(Cc3ccc(Cl)nn3)c2)c(Br)c1`, the melting point was in the range of 133 to 135 °C.
Regarding `CSCCSc1c(O)cc(C)oc1=O`, the melting point was 81 to 83 °C.
With `NC(=O)CCCC(=O)NCCS`, the melting point was 127 °C.
Regarding `O=C1NC(=O)c2c1c(-c1ccccc1Cl)cc1c2ccn1CCN1CCCC1`, the melting point lay within 208 to 209 °C.
`CCCc1c(OCCOCCC(=O)OC)ccc(C(C)=O)c1O` displayed a melting point of 48 to 50 °C.
To `O=c1c2cc(F)c(F)cc2nc(C(S)c2ncnc3[nH]cnc23)n1-c1ccccc1Cl` (configuration not stated) belongs 208 °C.
Turning to `Cc1ccc(N)c(C(O)(C(F)(F)F)C(F)(F)F)c1`, the melting point is 110 °C.
To `Cc1ccc(NC(=N)Nc2nc(-c3ccccc3)cs2)cc1` belongs 152 to 153 °C; to `COc1cccc2oc(-c3ccc(C)cc3)cc(=O)c12`, 169 to 171 °C.
With `O=C1c2ccccc2C(=O)N1CCNCCCO`, the melting point is 94 to 95 °C.
In the case of `N#Cc1ccc(N2CCN(Cc3cn4cc(Cl)ccc4n3)CC2)c(Cl)c1`, the melting point lay in the range of 137 to 138 °C.
As for `CC1(C)Oc2ccc(C#N)cc2[C@@H](N2CCCC2)[C@@H]1O` (relative stereo), the melting point was 173 to 174 °C.
`CCCCCCCCCCCC12OC(C)CN1CC(C)O2` (configuration not stated): the melting point was greater than 130 °C.
The compound `Cc1cccc(C)c1Sc1cc(C(C)(C)C)cc(C(C)(C)C)c1O` showed a melting point of 101 to 102 °C.
`CCOC(=O)CSc1ccc(-c2nc3cnccc3[nH]2)cc1` had a melting point of 230 °C.
On to `Cc1cc2c3c(cc(C)c2[nH]c1=O)C(C)C(C)(CN=[N+]=[N-])O3` (configuration not stated), for which the melting point was 189 to 192 °C.
In the case of `CCCc1nc(OC)c(NC(=O)N2CCN(c3cc(C)cc(C)c3)CC2)cc1C` it was 138 to 139 °C; in that of `CC(CCCc1ccccc1)c1cc2c(cc1O)C1=C(CCCC1=O)C(C)(C)O2` (configuration not stated), 186 to 188 °C.
On to `OCC1OC(n2cnc3c(NCCc4c[nH]c5ccccc45)ncnc32)C(O)C1O` (configuration not stated), for which the melting point came out at 187 °C.
`N#CC(=Cc1cc2cccnc2n(-c2cc(Cl)cc(Cl)c2)c1=O)c1ccccn1` returned a melting point of 319 °C.
In the case of `CC(C)(CO)NS(=O)(=O)c1cncc(Br)c1` it was 112 °C; in that of `CN1CCN(c2ccc(-c3[nH]nc4c3C(=O)c3c(NC(=O)NN(C)C)cccc3-4)cc2)CC1`, 192 °C.
On to `CC(C)(C)C1CCCC(=Cc2ccc(Cl)cc2)C1(O)Cn1cncn1` (configuration not stated), for which the melting point was found to be 171 °C.
In the case of `CC(C)n1nc(-c2c(-c3ccccc3)nn3ccc(C(=O)NCCOc4ccccc4)cc23)ccc1=O` it was 156 to 157 °C; in that of `O=C(Nc1cccc2c1C(=O)c1c-2n[nH]c1-c1ccc(C(=O)N2CCN(CC3CC3)CC2)s1)NN1CCOCC1`, 211 to 212 °C; in that of `CC(N1CCC(n2c(=O)[nH]c3ccccc32)CC1)N1Sc2ccccc2C1C(N)=O` (configuration not stated), 174 to 177 °C.
To `Cc1ccc2cccc(OCc3c(Cl)ccc(S(=O)(=O)N(CCCCCCCC(=O)O)Cc4ccccc4)c3Cl)c2n1` belongs 100 °C.
The compound `CCOC(=NC(=O)Nc1ccc(OC(F)(F)F)cc1)N1Cc2ccccc2-c2ccccc2C1` returned a melting point of 129 to 130 °C.
For the compound `N#CCCN(CC1CC1)C(N)=O`, the melting point fell in the range of 84 to 87 °C.
Turning to `CC(c1ccc(O)cc1)c1ccc(O)cc1`, the melting point is 123 to 125 °C.
Regarding `COC(=O)CCCc1cc2nc(Cl)ccc2n1S(=O)(=O)c1ccc(I)cc1`, the melting point is 117 to 118 °C.
In the case of `Cc1ccc(S(=O)(=O)NC(=O)CC(=O)O)cc1` it was 80 °C.
In turn, `Cc1cc(CCCCCCC(OS(=O)(=O)O)c2nnnn2C)on1` (configuration not stated) returned a melting point of 58 to 60 °C.
Regarding `COC(=O)C(C)Oc1ccccc1S(N)(=O)=O` (configuration not stated), the melting point is 140 to 142 °C.
On to `CC(C)n1c(-c2ccccc2)nc(-c2ccc(F)cc2)c1CO`, for which the melting point fell in the range of 190 to 193 °C.
`COC1=C(OC)C(=O)C(Cl)=C(C)C1=O` returned a melting point of 66 to 68 °C.
The compound `CNS(=O)(=O)c1ccc(NC=C2C(=O)Nc3ccc4ncsc4c32)cc1CCOCCO` showed a melting point of 165 °C.
`O=C(NC1CC1)c1nccnc1Oc1cccc(C(F)(F)F)c1` gave a melting point of 74 to 77 °C.
Consider `Cc1nc(-n2ccc(OCc3ccccn3)cc2=O)sc1C(=O)NCc1ccccc1`, for which the melting point was 202 to 205 °C.
`CCCCOc1c(CN2C(=O)c3ccccc3C2=O)n(CC(C)(C)C)c(=O)c2cc(F)ccc12` gave a melting point of 155 to 156 °C.
The compound `CCN(CC)C(=O)Nc1cccc(Cl)c1` displayed a melting point of 81 to 82 °C.
Turning to `CN1C(=O)Cc2cc(C(=O)CN3CCN(c4ccccc4)CC3)cnc21`, the melting point lay within 136 to 137 °C.
The compound `COCC1CN(C(=O)c2cc(OC)c(OC)c(OC)c2)CCN1C(=O)OC(C)(C)C` (configuration not stated) gave a melting point of 127 °C.
`CCN1C(=O)CC2(CNC(=O)C2)C1=O` (configuration not stated) yielded a melting point of 168 to 169 °C.
Turning to `CCOC(=O)C1=C(C)NC(C)=C(C(=O)OCC)C1c1ccccc1/C=C/c1ccc(OC)cc1`, the melting point was 179 to 181 °C.
`[N-]=[N+]=Nc1ccc(CBr)cc1Cl` had a melting point of 75 to 77 °C.
On to `CCC(OC(=O)C1CC1)c1ccc(Cl)c2nc3n(c12)CCCN3c1ccc(OC)nc1C` (configuration not stated), for which the melting point lay in the range of 149 to 151 °C.
With `O=C(O)C=CC(=O)Oc1ccccc1`, the melting point is 127 to 128 °C.
In the case of `CCOC(=O)C1=C(c2ccc(-n3c(C)nc4cnccc43)cc2)NC(C)=C(C(=O)OCCOC)C1c1ccccc1Cl` (configuration not stated) it was 195 to 196 °C.
Compound `CCOC(=O)c1cn(-c2nccs2)c2nc(N3C[C@@H](NC)[C@H](OC)C3)ccc2c1=O` (relative stereo) yielded a melting point of 73 to 76 °C.
Consider `Cc1cccc2c1Sc1ccccc1N2`, for which the melting point was 115 °C.
`O=C(O)CCc1cnoc1-c1ccc([N+](=O)[O-])cc1` came in with a melting point of 204 to 205 °C.
`CCCCCCCCCCCCCCCC(=O)OCC(O)COC(=O)CCCCCCCCCCCCCCC` returned a melting point of 71 to 73 °C.
Consider `COc1cc(COc2nn(-c3ccccc3)cc2/C=C/c2nnco2)ccc1OCc1nc(-c2ccco2)oc1C`, for which the melting point lay within 162 to 163 °C.
For `COc1ccc(-c2cc3c(OC)cc(OC)cc3nc2OCC(=O)OCc2ccccc2)cc1`, the melting point lay within 114 to 115 °C.
Compound `Cc1ccc2[nH]c(=O)oc(=O)c2c1` came in with a melting point of 257 °C.
To `O=C1C(=Cc2ccccc2)CCc2cc(OCCc3c[nH]cn3)ccc21` belongs 53 to 56 °C.
Regarding `CCCCCCCN(Cc1ccc(CCC(C)C)cc1)C(=O)Nc1c(OC)ccc2ncccc12`, the melting point lay in the range of 86 to 87 °C.
On to `Cc1cccc(NC(=O)NCC(=O)N2C(Cc3ccccc3)SC[C@H]2C(=O)OC(C)(C)C)c1` (some centres not stated), for which the melting point amounted to 104 °C.
Compound `Cc1ccc(S(F)(F)(F)(F)F)cc1[N+](=O)[O-]` gave a melting point of 29 to 30 °C.
As to `COC(=O)c1nn(CCN(C)C)c2nc3cc(OC)ccc3cc12`, the melting point lay in the range of 127 to 128 °C.
In turn, `CCCCCCCCCCCCCCCCCC(=O)Nc1cccc(C(=O)N(CC(=O)O)CC(=O)O)c1` gave a melting point of 132 to 142 °C.
To `O=C1COc2c(cc(Cl)cc2C(=O)NC2CCN(Cc3ccccc3)CC2)N1` belongs 203 to 206 °C.
`CC(C)c1cccc(C(C)C)c1NC(=O)CN1CCN(CCSc2nc3ncccc3o2)CC1` yielded a melting point of 153 to 154 °C.
Turning to `O=C(O)c1cn(C2CSC2)c2c(F)c(F)c(F)cc2c1=O`, the melting point is 172 to 175 °C.
`CCCN(Cc1cccc(-c2noc(C)n2)c1)C(=O)Cc1ccc(-c2ccccc2S(=O)(=O)NC(C)(C)C)cc1` showed a melting point of 132 to 133 °C.
As to `O=C(Nc1ccc(-n2nc(C(F)(F)F)cc2C(F)(F)F)cc1)c1cccc(F)c1`, the melting point was 148 to 151 °C.
Compound `CC(=O)c1nnn(C[C@@H]2C[C@@H](S)CN2S(=O)(=O)c2ccc3ccccc3c2)c1C` registered a melting point of 145 °C.
Compound `O=C(O)C1C2CC3C(C2=O)C31` (configuration not stated) registered a melting point of 144 to 145 °C.
In the case of `COc1cc(OC)nc(Oc2ccccc2C(=O)NS(=O)(=O)C(C)C)n1` it was 128 to 130 °C.
`CCOC(=O)C1CC(=O)NN1c1ncc(Cl)cc1Cl` (configuration not stated) came in with a melting point of 105 to 108 °C.
To `CCCCOc1c(CNC(=O)OC(C)(C)C)n(CC(C)C)c(=O)c2ccc(-c3ccccn3)cc12` belongs 123 to 124 °C; to `COc1cc2c(Nc3ccc4cn[nH]c4c3)c(C#N)cnc2c(OC)c1OC`, 243 to 245 °C.
